Tests used:
[1] = system: anti-Aβ antibodies in macaque antisera; test: Specificity analysis (10-mer peptide ELISA) of antisera from Cynomolgus macaques; type: binding
[2] = system: anti-Aβ antibodies in sera of vaccinated patients; test: Epitope mapping, competitive binding inhibition EIA with patient sera (10-mer peptides, IC50); set-up: species or system human; Epitope mapping, fine specificity analysis, serum of subject P210: unit not given here; conditions: for Epitope mapping, fine specificity analysis, serum of subject P101: serum 16 wpi of vaccinated patient P101; for Epitope mapping, fine specificity analysis, serum of subject P102: serum 16 wpi of vaccinated patient P102; for Epitope mapping, fine specificity analysis, serum of subject P103: serum 16 wpi of vaccinated patient P103; for Epitope mapping, fine specificity analysis, serum of subject P104: serum 16 wpi of vaccinated patient P104; for Epitope mapping, fine specificity analysis, serum of subject P105: serum 16 wpi of vaccinated patient P105; for Epitope mapping, fine specificity analysis, serum of subject P106: serum 16 wpi of vaccinated patient P106; for Epitope mapping, fine specificity analysis, serum of subject P107: serum 16 wpi of vaccinated patient P107; for Epitope mapping, fine specificity analysis, serum of subject P108: serum 16 wpi of vaccinated patient P108; for Epitope mapping, fine specificity analysis, serum of subject P109: serum 16 wpi of vaccinated patient P109; for Epitope mapping, fine specificity analysis, serum of subject P201: serum 16 wpi of vaccinated patient P201; for Epitope mapping, fine specificity analysis, serum of subject P202: serum 16 wpi of vaccinated patient P202; for Epitope mapping, fine specificity analysis, serum of subject P203: serum 16 wpi of vaccinated patient P203; for Epitope mapping, fine specificity analysis, serum of subject P204: serum 16 wpi of vaccinated patient P204; for Epitope mapping, fine specificity analysis, serum of subject P205: serum 16 wpi of vaccinated patient P205; for Epitope mapping, fine specificity analysis, serum of subject P206: serum 16 wpi of vaccinated patient P206; for Epitope mapping, fine specificity analysis, serum of subject P207: serum 16 wpi of vaccinated patient P207; for Epitope mapping, fine specificity analysis, serum of subject P208: serum 16 wpi of vaccinated patient P208; for Epitope mapping, fine specificity analysis, serum of subject P209: serum 16 wpi of vaccinated patient P209; for Epitope mapping, fine specificity analysis, serum of subject P210: serum 16 wpi of vaccinated patient P210
[3] = antisera of macaques given UBI AD Vaccine 150 μg/dose, 9 WPI
[4] = antisera of macaques given UBI AD Vaccine 150 μg/dose, 15 WPI
[5] = antisera of macaques given UBI AD Vaccine 750 μg/dose, 9 WPI
[6] = antisera of macaques given UBI AD Vaccine 750 μg/dose, 15 WPI

Substance | Reactivity of antisera with peptide (specificity analysis ELISA) [1, 3] | Reactivity of antisera with peptide (specificity analysis ELISA) [1, 4] | Reactivity of antisera with peptide (specificity analysis ELISA) [1, 5] | Reactivity of antisera with peptide (specificity analysis ELISA) [1, 6] | Epitope mapping, fine specificity analysis, serum of subject P101 [2] | Epitope mapping, fine specificity analysis, serum of subject P102 [2] | Epitope mapping, fine specificity analysis, serum of subject P103 [2] | Epitope mapping, fine specificity analysis, serum of subject P104 [2] | Epitope mapping, fine specificity analysis, serum of subject P105 [2] | Epitope mapping, fine specificity analysis, serum of subject P106 [2] | Epitope mapping, fine specificity analysis, serum of subject P107 [2] | Epitope mapping, fine specificity analysis, serum of subject P108 [2] | Epitope mapping, fine specificity analysis, serum of subject P109 [2] | Epitope mapping, fine specificity analysis, serum of subject P201 [2] | Epitope mapping, fine specificity analysis, serum of subject P202 [2] | Epitope mapping, fine specificity analysis, serum of subject P203 [2] | Epitope mapping, fine specificity analysis, serum of subject P204 [2] | Epitope mapping, fine specificity analysis, serum of subject P205 [2] | Epitope mapping, fine specificity analysis, serum of subject P206 [2] | Epitope mapping, fine specificity analysis, serum of subject P207 [2] | further results
21 (HDSGYEVHHQ; PEPTIDE (1)..(10) Abeta 6-15 or APP 770(H677-Q686); listed as Homo sapiens) [compound 21] | 0.266 | 0.494 | 0.419 | 0.332 | 0 | 0 | 0 | 0 | 0 | 0 | 0 | 0 | 0 | 0 | 0 | 0 | 0 | 0 | 0 | 0 | Epitope mapping, fine specificity analysis, serum of subject P208 [2]: 0; Epitope mapping, fine specificity analysis, serum of subject P209 [2]: 0; Epitope mapping, fine specificity analysis, serum of subject P210 [2]: 0
20 (RHDSGYEVHH; PEPTIDE (1)..(10) Abeta 5-14 or APP 770(R676-H685); listed as Homo sapiens) [compound 20] | 0.296 | 0.400 | 0.453 | 0.461 | 0 | 0 | 0 | 0 | 0 | 0 | 0 | 0 | 0 | 0 | 0 | 0 | 0 | 0 | 0 | 0 | Epitope mapping, fine specificity analysis, serum of subject P208 [2]: 0; Epitope mapping, fine specificity analysis, serum of subject P209 [2]: 0; Epitope mapping, fine specificity analysis, serum of subject P210 [2]: 0
9 (EEISEVKMDA; PEPTIDE (1)..(10) Abeta -8-2 or APP 770(E664-A673); listed as Homo sapiens) [compound 9] | 0.082 | 0.092 | 0.081 | 0.076 | 0 | 0 | 0 | 0 | 0 | 0 | 0 | 0 | 0 | 0 | 0 | 0 | 0 | 0 | 0 | 0 | Epitope mapping, fine specificity analysis, serum of subject P208 [2]: 0; Epitope mapping, fine specificity analysis, serum of subject P209 [2]: 0; Epitope mapping, fine specificity analysis, serum of subject P210 [2]: 0
25 (YEVHHQKLVF; PEPTIDE (1)..(10) Abeta 10-19 or APP 770(Y681-F690); listed as Homo sapiens) [compound 25] | 0.092 | 0.069 | 0.069 | 0.058 | 0 | 0 | 0 | 0 | 0 | 0 | 0 | 0 | 0 | 0 | 0 | 0 | 0 | 0 | 0 | 10 | Epitope mapping, fine specificity analysis, serum of subject P208 [2]: 0; Epitope mapping, fine specificity analysis, serum of subject P209 [2]: 0; Epitope mapping, fine specificity analysis, serum of subject P210 [2]: 0
11 (ISEVKMDAEF; PEPTIDE (1)..(10) Abeta -6-4 or APP 770(I666-F675); listed as Homo sapiens) [compound 11] | 0.055 | 0.058 | 0.063 | 0.062 | 0 | 0 | 0 | 0 | 0 | 0 | 0 | 0 | 0 | 0 | 0 | 0 | 0 | 0 | 0 | 0 | Epitope mapping, fine specificity analysis, serum of subject P208 [2]: 0; Epitope mapping, fine specificity analysis, serum of subject P209 [2]: 0; Epitope mapping, fine specificity analysis, serum of subject P210 [2]: 0
24 (GYEVHHQKLV; PEPTIDE (1)..(10) Abeta 9-18 or APP 770(G680-V689); listed as Homo sapiens) [compound 24] | 0.055 | 0.067 | 0.052 | 0.059 | 0 | 0 | 0 | 0 | 0 | 0 | 0 | 0 | 0 | 0 | 0 | 0 | 0 | 0 | 0 | 16 | Epitope mapping, fine specificity analysis, serum of subject P208 [2]: 0; Epitope mapping, fine specificity analysis, serum of subject P209 [2]: 0; Epitope mapping, fine specificity analysis, serum of subject P210 [2]: 0
17 (AEFRHDSGYE; PEPTIDE (1)..(10) Abeta 2-11 or APP 770(A673-E682); listed as Homo sapiens) [compound 17] | 0.058 | 0.059 | 0.054 | 0.060 | 2 | 0 | 0 | 0 | 0 | 0 | 0 | 0 | 0 | 3 | 0 | 0 | 0 | 0 | 0 | 0 | Epitope mapping, fine specificity analysis, serum of subject P208 [2]: 0; Epitope mapping, fine specificity analysis, serum of subject P209 [2]: 0; Epitope mapping, fine specificity analysis, serum of subject P210 [2]: 0
